Measurements from patent publication US20150087673A1, “METHODS FOR USING AND BIOMARKERS FOR AMPK-ACTIVATING COMPOUNDS” (RIGEL PHARMACEUTICALS, INC., priority 2013, published 2015).
Marks after values point to notes of the source that are not given here.

Tests used:
db/db mice = test: Metabolomics study: metabolite profiling of liver, muscle, adipose tissue and plasma of treated db/db mice; format: in vivo, mouse
Description: Maledb/db mice (8 weeks) were orally gavaged once daily with either vehicle or 10 mg/kg compound 309. Liver, muscle, adipose tissue, and plasma from treated mice (n=6/treatment group) were collected 30 minutes after dosing both on day 3 of treatment. Frozen tissue and plasma samples were sent to Metabolon for unbiased metabolite analysis [(Durham, N.C.) See, Evans A, DeHaven C, Barrett T, Mitchell M, Milgram E (2009)—Integrated, nontargeted ultrahigh performance liquid chromatography/electrospray ionization tandem mass spectrometry platform for the identification and relative quantification of the small-molecule complement of biological systems. Anal Chem 81: 6656-6667. Lawton K, Berger A, Mitchell M, Milgram K, Evans A, et al. (2008)—Analysis of the adult human plasma metabolome. Pharmacogenomics 9: 383-397. Reitman Z J, Jin G, Karoly E D, Spasojevic I, Yang J, et al. (2011) Profiling the effects of isocitrate dehydrogenase 1 and 2 mutations on the cellular metabolome. PNAS 108: […].] Biochemical data were analyzed using Welch's two-sample t-tests.
Metabolite profiling of tissues from db/db mice orally dosed with either vehicle or 10 mg/kg compound 309 was used to characterize in detail the effects of the present AMPK activators on nutrient pathways in a commonly used mouse model of type 2 diabetes. […] Since AMPK activation results in both acute and chronic changes to metabolic pathways, samples from non-fasted mice treated for three days with compound 309 were analyzed. Samples were collected thirty minutes after compound dosing when compound 309 plasma levels as well as tissue AMPK activation were maximal.

AMPK = AMPK activation assay (enzyme-linked immunosorbent assay); format: cell-based
In short: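 Activation by each compound is measured using a conventional commercial immunoassay kit.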

[1] = Adipose, 10 mg/kg oral once daily, day 3, 30 min after dosing
[2] = Liver, 10 mg/kg oral once daily, day 3, 30 min after dosing
[3] = Muscle, 10 mg/kg oral once daily, day 3, 30 min after dosing
[4] = Plasma, 10 mg/kg oral once daily, day 3, 30 min after dosing

EC50 (AMPK): < 0.5 µM
SMILES: COc1ccc(C(=O)C2CCN(C(=O)c3ccc(C(=O)NC4CCN(Cc5ccc(C#N)cc5)CC4)cn3)CC2)cc1 [Compound 309, N-(1-(4-cyanobenzyl)piperidin-4-yl)-6-(4-(4-methoxybenzoyl)piperidine-1-carbonyl)nicotinamide]
relative levels of the other amino acids (db/db mice; 10 mg/kg): not similarly affected | 2-methylbutyrlcarnitine (C5) Ratio (Compound 309/Vehicle) (db/db mice; [1]): 0.57^†† | 3-hydroxybutyrate (BHBA) Ratio (Compound 309/Vehicle) (db/db mice; [1]): 1.68** | 3-hydroxyisobutyrate Ratio (Compound 309/Vehicle) (db/db mice; [1]): 1.13 | 3-methyl-2-oxobutyrate Ratio (Compound 309/Vehicle) (db/db mice; [1]): 1 | 3-methyl-2-oxovalerate Ratio (Compound 309/Vehicle) (db/db mice; [1]): 1.31** | 4-methyl-2-oxopentanoate Ratio (Compound 309/Vehicle) (db/db mice; [1]): 1.23 | alanine Ratio (Compound 309/Vehicle) (db/db mice; [1]): 1 | arginine Ratio (Compound 309/Vehicle) (db/db mice; [1]): 0.86^†† | asparagine Ratio (Compound 309/Vehicle) (db/db mice; [1]): 0.84 | aspartate Ratio (Compound 309/Vehicle) (db/db mice; [1]): 0.72^†† | butyrylcarnitine Ratio (Compound 309/Vehicle) (db/db mice; [1]): 0.82 | cysteine Ratio (Compound 309/Vehicle) (db/db mice; [1]): 0.62^† | glutamate Ratio (Compound 309/Vehicle) (db/db mice; [1]): 0.89 | glutamine Ratio (Compound 309/Vehicle) (db/db mice; [1]): 0.95 | glycine Ratio (Compound 309/Vehicle) (db/db mice; [1]): 0.81 | hydroxybutyrylcarnitine Ratio (Compound 309/Vehicle) (db/db mice; [1]): 1.7** | hydroxylisovaleroyl carnitine Ratio (Compound 309/Vehicle) (db/db mice; [1]): 0.86 | isobutyrylcarnitine Ratio (Compound 309/Vehicle) (db/db mice; [1]): 0.57^†† | isoleucine Ratio (Compound 309/Vehicle) (db/db mice; [1]): 0.73 | isovalerylcarnitine Ratio (Compound 309/Vehicle) (db/db mice; [1]): 0.58^†† | leucine Ratio (Compound 309/Vehicle) (db/db mice; [1]): 0.78 | lysine Ratio (Compound 309/Vehicle) (db/db mice; [1]): 0.74 | methionine Ratio (Compound 309/Vehicle) (db/db mice; [1]): 0.87 | phenylalanine Ratio (Compound 309/Vehicle) (db/db mice; [1]): 0.82 | proline Ratio (Compound 309/Vehicle) (db/db mice; [1]): 0.86 | propionylcarnitine Ratio (Compound 309/Vehicle) (db/db mice; [1]): 0.77 | serine Ratio (Compound 309/Vehicle) (db/db mice; [1]): 0.85 | threonine Ratio (Compound 309/Vehicle) (db/db mice; [1]): 0.77^† | tryptophan Ratio (Compound 309/Vehicle) (db/db mice; [1]): 0.9 | tyrosine Ratio (Compound 309/Vehicle) (db/db mice; [1]): 0.85 | valine Ratio (Compound 309/Vehicle) (db/db mice; [1]): 0.81 | 2-methylbutyrlcarnitine (C5) Ratio (Compound 309/Vehicle) (db/db mice; [2]): 0.76 | 3-hydroxybutyrate (BHBA) Ratio (Compound 309/Vehicle) (db/db mice; [2]): 1.15 | 3-methylglutaryl carnitine (C6) Ratio (Compound 309/Vehicle) (db/db mice; [2]): 0.57^†† | N-acetylleucine Ratio (Compound 309/Vehicle) (db/db mice; [2]): 0.94 | alanine Ratio (Compound 309/Vehicle) (db/db mice; [2]): 1.4** | alpha-hydroxyisovalerate Ratio (Compound 309/Vehicle) (db/db mice; [2]): 0.86 | arginine Ratio (Compound 309/Vehicle) (db/db mice; [2]): 1.67 | aspartate Ratio (Compound 309/Vehicle) (db/db mice; [2]): 1.59** | butyrylglycine Ratio (Compound 309/Vehicle) (db/db mice; [2]): 0.41^†† | cysteine Ratio (Compound 309/Vehicle) (db/db mice; [2]): 0.97 | glutamate Ratio (Compound 309/Vehicle) (db/db mice; [2]): 1.61** | glutamine Ratio (Compound 309/Vehicle) (db/db mice; [2]): 1.04 | glycine Ratio (Compound 309/Vehicle) (db/db mice; [2]): 0.96 | histidine Ratio (Compound 309/Vehicle) (db/db mice; [2]): 1.16* | hydroxybutyrylcarnitine Ratio (Compound 309/Vehicle) (db/db mice; [2]): 1.45** | hydroxylisovaleroyl carnitine Ratio (Compound 309/Vehicle) (db/db mice; [2]): 1 | isoleucine Ratio (Compound 309/Vehicle) (db/db mice; [2]): 0.86^†† | isovalerylcarnitine Ratio (Compound 309/Vehicle) (db/db mice; [2]): 0.54^†† | leucine Ratio (Compound 309/Vehicle) (db/db mice; [2]): 0.94 | lysine Ratio (Compound 309/Vehicle) (db/db mice; [2]): 1.11* | methionine Ratio (Compound 309/Vehicle) (db/db mice; [2]): 1.03 | phenylalanine Ratio (Compound 309/Vehicle) (db/db mice; [2]): 0.96 | proline Ratio (Compound 309/Vehicle) (db/db mice; [2]): 0.94 | propionylcarnitine Ratio (Compound 309/Vehicle) (db/db mice; [2]): 0.73 | serine Ratio (Compound 309/Vehicle) (db/db mice; [2]): 1.19 | threonine Ratio (Compound 309/Vehicle) (db/db mice; [2]): 0.94 | tryptophan Ratio (Compound 309/Vehicle) (db/db mice; [2]): 0.99 | tyrosine Ratio (Compound 309/Vehicle) (db/db mice; [2]): 1.08 | valine Ratio (Compound 309/Vehicle) (db/db mice; [2]): 0.87^†† | 2-methylbutyrlcarnitine (C5) Ratio (Compound 309/Vehicle) (db/db mice; [3]): 0.63^†† | 3-hydroxybutyrate (BHBA) Ratio (Compound 309/Vehicle) (db/db mice; [3]): 2.2** | 3-hydroxyisobutyrate Ratio (Compound 309/Vehicle) (db/db mice; [3]): 1.33* | 3-methyl-2-oxovalerate Ratio (Compound 309/Vehicle) (db/db mice; [3]): 0.78 | 4-methyl-2-oxopentanoate Ratio (Compound 309/Vehicle) (db/db mice; [3]): 0.96 | alanine Ratio (Compound 309/Vehicle) (db/db mice; [3]): 0.96 | alpha-hydroxyisovalerate Ratio (Compound 309/Vehicle) (db/db mice; [3]): 0.85 | arginine Ratio (Compound 309/Vehicle) (db/db mice; [3]): 0.71 | aspartate Ratio (Compound 309/Vehicle) (db/db mice; [3]): 0.82 | butyrylcarnitine Ratio (Compound 309/Vehicle) (db/db mice; [3]): 0.62 | butyrylglycine Ratio (Compound 309/Vehicle) (db/db mice; [3]): 1.07 | glutamate Ratio (Compound 309/Vehicle) (db/db mice; [3]): 1.15 | glutamine Ratio (Compound 309/Vehicle) (db/db mice; [3]): 1.04 | glycine Ratio (Compound 309/Vehicle) (db/db mice; [3]): 0.96 | histidine Ratio (Compound 309/Vehicle) (db/db mice; [3]): 1 | hydroxybutyrylcarnitine Ratio (Compound 309/Vehicle) (db/db mice; [3]): 1.34* | hydroxylisovaleroyl carnitine Ratio (Compound 309/Vehicle) (db/db mice; [3]): 0.86^† | isobutyrylcarnitine Ratio (Compound 309/Vehicle) (db/db mice; [3]): 0.64^†† | isoleucine Ratio (Compound 309/Vehicle) (db/db mice; [3]): 0.81^†† | isovalerylcarnitine Ratio (Compound 309/Vehicle) (db/db mice; [3]): 0.58^†† | leucine Ratio (Compound 309/Vehicle) (db/db mice; [3]): 0.83^† | lysine Ratio (Compound 309/Vehicle) (db/db mice; [3]): 0.96 | methionine Ratio (Compound 309/Vehicle) (db/db mice; [3]): 0.78^† | phenylalanine Ratio (Compound 309/Vehicle) (db/db mice; [3]): 0.91 | proline Ratio (Compound 309/Vehicle) (db/db mice; [3]): 0.92 | propionylcarnitine Ratio (Compound 309/Vehicle) (db/db mice; [3]): 0.87^† | serine Ratio (Compound 309/Vehicle) (db/db mice; [3]): 0.89 | threonine Ratio (Compound 309/Vehicle) (db/db mice; [3]): 0.89 | tiglyl carnitine Ratio (Compound 309/Vehicle) (db/db mice; [3]): 0.98 | tryptophan Ratio (Compound 309/Vehicle) (db/db mice; [3]): 0.95 | tyrosine Ratio (Compound 309/Vehicle) (db/db mice; [3]): 0.96 | valine Ratio (Compound 309/Vehicle) (db/db mice; [3]): 0.77^†† | 2-hydroxy-3-methylvalerate Ratio (Compound 309/Vehicle) (db/db mice; [4]): 0.91 | 2-methylbutyrlcarnitine (C5) Ratio (Compound 309/Vehicle) (db/db mice; [4]): 0.56^†† | 3-hydroxybutyrate (BHBA) Ratio (Compound 309/Vehicle) (db/db mice; [4]): 1.93** | 3-hydroxyisobutyrate Ratio (Compound 309/Vehicle) (db/db mice; [4]): 1.69** | 3-methyl-2-oxobutyrate Ratio (Compound 309/Vehicle) (db/db mice; [4]): 1.17 | 3-methyl-2-oxovalerate Ratio (Compound 309/Vehicle) (db/db mice; [4]): 1.06 | 3-methylglutaryl carnitine (C6) Ratio (Compound 309/Vehicle) (db/db mice; [4]): 0.55^†† | 4-methyl-2-oxopentanoate Ratio (Compound 309/Vehicle) (db/db mice; [4]): 1.05 | N-acetylisoleucisne Ratio (Compound 309/Vehicle) (db/db mice; [4]): 1.11 | N-acetylleucine Ratio (Compound 309/Vehicle) (db/db mice; [4]): 0.96 | alanine Ratio (Compound 309/Vehicle) (db/db mice; [4]): 1.22 | alpha-hydroxyisocaproate Ratio (Compound 309/Vehicle) (db/db mice; [4]): 0.91 | alpha-hydroxyisovalerate Ratio (Compound 309/Vehicle) (db/db mice; [4]): 0.91 | arginine Ratio (Compound 309/Vehicle) (db/db mice; [4]): 0.95 | asparagine Ratio (Compound 309/Vehicle) (db/db mice; [4]): 0.89 | butyrylcarnitine Ratio (Compound 309/Vehicle) (db/db mice; [4]): 0.65^† | butyrylglycine Ratio (Compound 309/Vehicle) (db/db mice; [4]): 0.41^†† | cysteine Ratio (Compound 309/Vehicle) (db/db mice; [4]): 0.94 | glutamate Ratio (Compound 309/Vehicle) (db/db mice; [4]): 1.22* | glutamine Ratio (Compound 309/Vehicle) (db/db mice; [4]): 1.03 | glycine Ratio (Compound 309/Vehicle) (db/db mice; [4]): 1.03 | histidine Ratio (Compound 309/Vehicle) (db/db mice; [4]): 0.99 | hydroxybutyrylcarnitine Ratio (Compound 309/Vehicle) (db/db mice; [4]): 2.28** | isobutyrylcarnitine Ratio (Compound 309/Vehicle) (db/db mice; [4]): 0.41^†† | isoleucine Ratio (Compound 309/Vehicle) (db/db mice; [4]): 0.75^†† | isovalerylcarnitine Ratio (Compound 309/Vehicle) (db/db mice; [4]): 0.45^†† | isovalerylglycine Ratio (Compound 309/Vehicle) (db/db mice; [4]): 0.67^†† | leucine Ratio (Compound 309/Vehicle) (db/db mice; [4]): 0.75^† | lysine Ratio (Compound 309/Vehicle) (db/db mice; [4]): 0.91 | methionine Ratio (Compound 309/Vehicle) (db/db mice; [4]): 0.88 | phenylalanine Ratio (Compound 309/Vehicle) (db/db mice; [4]): 0.87 | proline Ratio (Compound 309/Vehicle) (db/db mice; [4]): 0.96 | propionylcarnitine Ratio (Compound 309/Vehicle) (db/db mice; [4]): 1.07 | serine Ratio (Compound 309/Vehicle) (db/db mice; [4]): 0.83^† | threonine Ratio (Compound 309/Vehicle) (db/db mice; [4]): 0.9 | tigloylglycine Ratio (Compound 309/Vehicle) (db/db mice; [4]): 0.96 | tryptophan Ratio (Compound 309/Vehicle) (db/db mice; [4]): 1.02 | tyrosine Ratio (Compound 309/Vehicle) (db/db mice; [4]): 1.11 | valine Ratio (Compound 309/Vehicle) (db/db mice; [4]): 0.91 | hydroxybutyrylcarnitine levels (db/db mice; all compartments sampled, 10 mg/kg): similarly increased | intermediates of the catabolic pathways of all three BCAA (db/db mice; all three major metabolic organs and plasma, 10 mg/kg): Marked reductions | effects on glucose metabolic pathways in global metabolite profiling (db/db mice; data not shown): no dramatic effects | relative levels of butyrylglycine and butyrylcarnitine (db/db mice; liver and plasma, 10 mg/kg): reduction | BHBA level vs vehicle (db/db mice; liver, 10 mg/kg oral once daily, day 3): no difference | 3-hydroxybutyrate (BHBA) level vs vehicle (db/db mice; muscle, fat and plasma, 10 mg/kg oral once daily, day 3): significant elevation
